Results on ten compounds are retold here after patent publication US11780830B2, “Triazolone derivatives or salts thereof and pharmaceutical compositions comprising the same” (YUHAN CORPORATION, priority 2018, dated 2023).

Holding throughout (assay type): biochemical
One experiment deals with T1, recombinant human VAP-1 (Homo sapiens, UniProt Q16853).
T1 construct: purchased R&D systems
T1 sequence (Q16853 1-763): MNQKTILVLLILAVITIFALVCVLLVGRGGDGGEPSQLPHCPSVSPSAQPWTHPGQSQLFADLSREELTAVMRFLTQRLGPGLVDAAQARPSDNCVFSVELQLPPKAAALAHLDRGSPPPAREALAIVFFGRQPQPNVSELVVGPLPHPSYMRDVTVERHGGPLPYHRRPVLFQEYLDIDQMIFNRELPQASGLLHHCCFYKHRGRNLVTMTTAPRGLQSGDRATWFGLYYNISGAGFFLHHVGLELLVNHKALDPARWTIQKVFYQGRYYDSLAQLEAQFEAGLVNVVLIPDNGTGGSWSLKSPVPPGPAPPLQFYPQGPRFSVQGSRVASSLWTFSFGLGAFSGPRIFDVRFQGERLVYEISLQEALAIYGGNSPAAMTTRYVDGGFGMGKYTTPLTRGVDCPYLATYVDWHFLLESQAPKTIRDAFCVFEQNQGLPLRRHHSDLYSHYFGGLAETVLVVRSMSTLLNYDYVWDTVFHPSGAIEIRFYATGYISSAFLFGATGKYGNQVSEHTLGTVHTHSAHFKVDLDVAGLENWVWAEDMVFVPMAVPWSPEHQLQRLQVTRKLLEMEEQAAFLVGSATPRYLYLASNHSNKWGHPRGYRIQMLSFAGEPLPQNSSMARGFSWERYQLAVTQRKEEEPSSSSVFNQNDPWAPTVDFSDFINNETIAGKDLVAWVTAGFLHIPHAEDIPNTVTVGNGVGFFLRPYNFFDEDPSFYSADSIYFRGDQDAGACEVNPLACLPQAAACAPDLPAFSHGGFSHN
In words: Activity on recombinant human VAP-1, HRP-coupled Amplex Red hydrogen peroxide assay. To be noted: substrate 1 mM benzylamine; compound incubated with enzyme at 37° C. for 30 minutes; pH 7.4; read-out: Inhibitory Activity (IC50, nM) human VAP-1. A digest of the protocol:
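8-point 1:3 dilutions, final DMSO <1%; 30 min enzyme preincubation, 37 °C, pH 7.4 phosphate. Start: 1 mM benzylamine + 200 uM Amplex Red + 1 U/mL HRP. Read ex544/em590 over 1-2 h; % rate decrease vs DMSO control, 4-parameter logistic IC50.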

Experiment [1] concerns the target T2, recombinant human MAO-A (monoamine oxidase-A) (Homo sapiens, UniProt P21397).
T2 construct: purchased Sigma-Aldrich
T2 sequence (P21397 1-527): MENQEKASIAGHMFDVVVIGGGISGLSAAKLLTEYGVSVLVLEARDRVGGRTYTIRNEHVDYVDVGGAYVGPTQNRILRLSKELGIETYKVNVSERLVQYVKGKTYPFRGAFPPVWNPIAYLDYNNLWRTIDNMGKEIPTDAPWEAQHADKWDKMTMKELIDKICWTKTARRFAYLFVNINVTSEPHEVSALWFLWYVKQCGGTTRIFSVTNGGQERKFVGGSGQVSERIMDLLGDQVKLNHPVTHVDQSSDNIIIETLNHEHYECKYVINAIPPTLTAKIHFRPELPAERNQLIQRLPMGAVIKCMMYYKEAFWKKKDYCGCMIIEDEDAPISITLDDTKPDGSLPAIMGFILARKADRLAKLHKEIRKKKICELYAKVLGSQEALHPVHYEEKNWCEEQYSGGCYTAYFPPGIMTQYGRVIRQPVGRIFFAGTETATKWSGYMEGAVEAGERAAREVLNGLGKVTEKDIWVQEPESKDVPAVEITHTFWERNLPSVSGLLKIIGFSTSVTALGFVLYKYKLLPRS
In words: Activity on recombinant human MAO-A, method similar to the VAP-1 assay. As to conditions: substrate 0.5 mM tyramine; read-out: Inhibitory Activity (IC50, nM) MAO-A. Put shortly:
(§1)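 HRP-coupled Amplex Red H2O2 assay, 50 mM sodium phosphate pH 7.4; compounds (8-point 1:3 series, final DMSO <1%) preincubated with enzyme 30 min at 37° C, then 200 uM Amplex Red, 1 U/mL HRP and substrate (MAO-A 0.5 mM tyramine; MAO-B 1 mM benzylamine) added. Resorufin fluorescence (ex 544/em 590 nm) read over 1-2 h; IC50 from four-parameter logistic fit.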

In experiment [2] the target is T3, recombinant human MAO-B (monoamine oxidase-B) (Homo sapiens, UniProt P27338).
T3 construct: purchased Sigma-Aldrich
T3 sequence (P27338 1-520): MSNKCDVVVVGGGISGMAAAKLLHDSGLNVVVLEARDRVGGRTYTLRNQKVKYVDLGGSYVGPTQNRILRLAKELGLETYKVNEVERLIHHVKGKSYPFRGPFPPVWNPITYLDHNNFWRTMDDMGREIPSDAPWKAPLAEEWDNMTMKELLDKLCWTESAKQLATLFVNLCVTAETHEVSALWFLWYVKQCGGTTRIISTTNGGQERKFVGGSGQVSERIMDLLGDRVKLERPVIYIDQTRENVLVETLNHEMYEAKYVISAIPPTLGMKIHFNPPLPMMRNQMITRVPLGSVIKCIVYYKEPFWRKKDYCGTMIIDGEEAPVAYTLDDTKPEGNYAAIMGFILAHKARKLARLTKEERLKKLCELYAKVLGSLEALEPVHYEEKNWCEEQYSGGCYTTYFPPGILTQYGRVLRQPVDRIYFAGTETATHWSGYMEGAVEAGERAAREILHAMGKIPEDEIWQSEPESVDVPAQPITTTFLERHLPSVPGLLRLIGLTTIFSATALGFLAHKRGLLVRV
As to the kind of experiment: Activity on recombinant human MAO-B, method similar to the VAP-1 assay. To be noted: substrate 1 mM benzylamine; read-out: Inhibitory Activity (IC50, nM) MAO-B. Put shortly:
as §1

In experiment [3] the target is T4, recombinant human DAO (diamine oxidase) (Homo sapiens, UniProt P19801).
T4 construct: purchased R&D systems
T4 sequence (P19801 20-751): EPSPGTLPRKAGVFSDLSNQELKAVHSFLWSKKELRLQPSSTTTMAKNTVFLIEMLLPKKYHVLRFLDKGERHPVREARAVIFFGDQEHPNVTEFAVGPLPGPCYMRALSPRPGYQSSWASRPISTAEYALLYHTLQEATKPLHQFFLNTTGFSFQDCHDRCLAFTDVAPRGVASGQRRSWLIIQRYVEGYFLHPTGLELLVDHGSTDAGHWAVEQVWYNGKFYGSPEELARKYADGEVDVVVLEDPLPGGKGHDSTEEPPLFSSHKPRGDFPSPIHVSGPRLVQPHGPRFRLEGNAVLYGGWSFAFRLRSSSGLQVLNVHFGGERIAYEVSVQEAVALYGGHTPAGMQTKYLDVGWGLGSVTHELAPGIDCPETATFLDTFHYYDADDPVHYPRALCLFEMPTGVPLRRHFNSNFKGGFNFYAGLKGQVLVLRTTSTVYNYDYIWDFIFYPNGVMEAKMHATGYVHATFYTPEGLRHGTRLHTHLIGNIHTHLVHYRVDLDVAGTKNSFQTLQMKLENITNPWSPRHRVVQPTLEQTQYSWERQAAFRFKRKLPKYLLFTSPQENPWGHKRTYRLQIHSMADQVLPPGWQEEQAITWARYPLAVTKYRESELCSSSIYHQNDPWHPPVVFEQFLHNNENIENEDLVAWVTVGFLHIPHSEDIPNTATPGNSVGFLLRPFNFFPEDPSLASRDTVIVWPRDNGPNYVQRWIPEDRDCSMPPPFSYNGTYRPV
As to the kind of experiment: Activity on recombinant human DAO, method similar to the VAP-1 assay. To be noted: substrate 1 mM putrescine; read-out: Inhibitory Activity (IC50, nM) DAO. A digest of the protocol: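 Inhibition of recombinant human diamine oxidase (DAO, R&D systems) was assessed by the same approach as the VAP-1 assay, using 1 mM putrescine as substrate. Hydrogen peroxide formed was detected through an HRP-coupled Amplex Red reaction yielding fluorescent resorufin, read at 544 nm excitation and 590 nm emission. IC50 values came from four-parameter logistic fitting in GraphPad Prism.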

Structures can show the parent of a compound that is named as a salt. A value given as a limit tells only on which side of the number the result lay.

The IC50 is the concentration needed to halve the response being measured. On to `CN1Cc2cc(-c3ccc(Cn4cnn(C/C(=C/F)CN)c4=O)s3)ccc2NC1=O` [Example 147, 6-[5-({1-[(2E)-2-(aminomethyl)-3-fluoroprop-2-en-1-yl]-5-oxo-1,5-dihydro-4H-1,2,4-triazol-4-yl}methyl)thiophen-2-yl]-3-methyl-3,4-dihydroquinazolin-2(1H)-one], for which the IC50 at recombinant human VAP-1 was 0.3 nM; in experiment [1], above 100000 nM; in experiment [2] it was 6700 nM; in experiment [3], 1000 nM.

Take `NC/C(=C\F)Cn1ncn(Cc2ccc(C#Cc3cnc4c(c3)NC(=O)CO4)s2)c1=O` [Example 138, 7-[2-[5-[[1-[(E)-2-(aminomethyl)-3-fluoro-allyl]-5-oxo-1,2,4-triazol-4-yl]methyl]-2-thienyl]ethynyl]-1H-pyrido[2,3-b][1,4]oxazin-2-one hydrochloride]: the IC50 on recombinant human VAP-1 was 0.2 nM; in experiment [1], above 100000 nM; in experiment [2] it was 2300 nM; in experiment [3] it was 470 nM.

As to `Cn1cc(-c2ccc(Cn3cnn(C/C(=C/F)CN)c3=O)s2)cn1` [Example 142, 2-[(2E)-2-(aminomethyl)-3-fluoroprop-2-en-1-yl]-4-{[5-(1-methyl-1H-pyrazol-4-yl)thiophen-2-yl]methyl}-2,4-dihydro-3H-1,2,4-triazol-3-one], the IC50 on recombinant human VAP-1 was 2.9 nM; in experiment [1], above 100000 nM; in experiment [2] it was 1000 nM; in experiment [3] it was 11000 nM.

`COC(=O)c1cc(F)cc(-c2ccc(Cn3cnn(C/C(=C/F)CN)c3=O)s2)c1` [Example 13, methyl 3-[5-(1-[(2E)-2-(aminomethyl)-3-fluoroprop-2-en-1-yl]-5-oxo-1,5-dihydro-4H-1,2,4-triazol-4-ylmethyl)thiophen-2-yl]-5-fluorobenzoate hydrochloride]: the IC50 on recombinant human VAP-1 was 0.8 nM; in experiment [1], above 100000 nM; in experiment [2], 260 nM; in experiment [3], 320 nM.

Regarding `CSc1ncc(-c2ccc(Cn3cnn(C/C(=C/F)CN)c3=O)s2)cn1` [Example 56, 2-[(2E)-2-(aminomethyl)-3-fluoroprop-2-en-1-yl]-4-(5-[2-(methylsulfanyl)pyrimidin-5-yl]thiophen-2-ylmethyl)-2,4-dihydro-3H-1,2,4-triazol-3-one hydrochloride], the IC50 at recombinant human VAP-1 was 0.4 nM; in experiment [1], above 100000 nM; in experiment [2], 4200 nM; in experiment [3] it was 40 nM.

Consider `Cn1nccc1-c1ccc(Cn2cnn(C/C(=C/F)CN)c2=O)s1` [Example 156, 2-[(2E)-2-(aminomethyl)-3-fluoroprop-2-en-1-yl]-4-{[5-(1-methyl-1H-pyrazol-5-yl)thiophen-2-yl]methyl}-2,4-dihydro-3H-1,2,4-triazol-3-one], for which the half-maximal inhibitory concentration (IC50) at recombinant human VAP-1 was 4.2 nM; in experiment [1] it was above 100000 nM; in experiment [2], 28 nM; in experiment [3], 1300 nM.

For the compound `NC/C(=C\F)Cn1ncn(Cc2ccc(-c3ccc4c(c3)CCCO4)s2)c1=O` [Example 109, 2-[(2E)-2-(aminomethyl)-3-fluoroprop-2-en-1-yl]-4-[5-(3,4-dihydro-2H-chromen-6-yl)thiophen-2-yl]methyl-2,4-dihydro-3H-1,2,4-triazol-3-one hydrochloride], the IC50 at recombinant human VAP-1 is 2.7 nM; in experiment [1] it was 25300 nM; in experiment [2], 104 nM; in experiment [3], 2540 nM.

For the compound `NC/C(=C\F)Cn1ncn(Cc2ccc(-c3ccc4c(c3)C(=O)NCC4)s2)c1=O` [Example 74, 7-[5-(1-[(2E)-2-(aminomethyl)-3-fluoroprop-2-en-1-yl]-5-oxo-1,5-dihydro-4H-1,2,4-triazol-4-ylmethyl)thiophen-2-yl]-3,4-dihydroisoquinolin-1(2H)-one hydrochloride], the IC50 is 0.3 nM at recombinant human VAP-1, above 100000 nM in experiment [1], above 10000 nM in experiment [2] and 620 nM in experiment [3].

In the case of `NC/C(=C\F)Cn1ncn(Cc2ccc(-c3ccc(F)c(C(F)(F)F)c3)s2)c1=O` [Example 15, 2-[(2E)-2-(aminomethyl)-3-fluoroprop-2-en-1-yl]-4-(5-[4-fluoro-3-(trifluoromethyl)phenyl]thiophen-2-ylmethyl)-2,4-dihydro-3H-1,2,4-triazol-3-one hydrochloride], the IC50 at recombinant human VAP-1 was 0.9 nM; in experiment [1], above 100000 nM; in experiment [2], 5 nM; in experiment [3], 670 nM.

Turning to `CCOc1ncc(-c2ccc(Cn3cnn(C/C(=C/F)CN)c3=O)s2)cn1` [Example 179, 2-[(2E)-2-(aminomethyl)-3-fluoroprop-2-en-1-yl]-4-{[5-(2-ethoxypyrimidin-5-yl)thiophen-2-yl]methyl}-2,4-dihydro-3H-1,2,4-triazol-3-one], the IC50 on recombinant human VAP-1 was 1.2 nM; in experiment [1] it was above 100000 nM; in experiment [2], 8400 nM; in experiment [3] it was 89 nM.
